Tests used:
[1] = biological target: CDK4-cyclinD1 (Homo sapiens (Human), UniProt P11802); assay: KINOMEscan scanMAX; assay type: binding; details: 2000 nM; read-out: Percent Control
[2] = biological target: STK33 (Homo sapiens (Human), UniProt Q9BYT3); assay: KINOMEscan scanMAX; assay type: binding; details: 2000 nM; read-out: Percent Control
[3] = biological target: RSK3(Kin.Dom.1-N-terminal) (RPS6KA2) (Homo sapiens (Human), UniProt Q15349); assay: KINOMEscan scanMAX; assay type: binding; details: 2000 nM; read-out: Percent Control
[4] = biological target: MAPKAPK2 (Homo sapiens (Human), UniProt P49137); assay: KINOMEscan scanMAX; assay type: binding; details: 2000 nM; read-out: Percent Control
[5] = biological target: PKAC-alpha (PRKACA) (Homo sapiens (Human), UniProt P17612); assay: KINOMEscan scanMAX; assay type: binding; details: 2000 nM; read-out: Percent Control
[6] = biological target: KIT(A829P) (Homo sapiens (Human), UniProt P10721, A829P); assay: KINOMEscan scanMAX; assay type: binding; details: 2000 nM; read-out: Percent Control
[7] = biological target: CTK (MATK) (Homo sapiens (Human), UniProt P42679); assay: KINOMEscan scanMAX; assay type: binding; details: 2000 nM; read-out: Percent Control
Chain of CTK (MATK) (P42679 whole entry): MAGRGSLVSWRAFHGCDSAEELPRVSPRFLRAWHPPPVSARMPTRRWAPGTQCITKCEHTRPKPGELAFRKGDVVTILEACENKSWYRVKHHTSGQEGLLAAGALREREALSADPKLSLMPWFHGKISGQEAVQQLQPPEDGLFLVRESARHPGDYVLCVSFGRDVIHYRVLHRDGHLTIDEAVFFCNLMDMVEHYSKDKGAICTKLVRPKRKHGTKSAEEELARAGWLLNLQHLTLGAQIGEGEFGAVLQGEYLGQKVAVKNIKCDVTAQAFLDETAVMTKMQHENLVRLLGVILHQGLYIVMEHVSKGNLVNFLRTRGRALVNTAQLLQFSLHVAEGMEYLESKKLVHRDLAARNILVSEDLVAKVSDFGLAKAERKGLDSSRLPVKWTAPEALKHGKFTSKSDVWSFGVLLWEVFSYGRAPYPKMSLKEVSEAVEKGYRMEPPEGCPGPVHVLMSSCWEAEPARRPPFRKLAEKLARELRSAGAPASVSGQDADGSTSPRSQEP

[8] = biological target: FLT4 (Homo sapiens (Human), UniProt P35916); assay: KINOMEscan scanMAX; assay type: binding; details: 2000 nM; read-out: Percent Control
[9] = biological target: FLT3(D835H) (Homo sapiens (Human), UniProt P36888, D835H); assay: KINOMEscan scanMAX; assay type: binding; details: 2000 nM; read-out: Percent Control
[10] = biological target: BMX (Homo sapiens (Human), UniProt P51813); assay: KINOMEscan scanMAX; assay type: binding; details: 2000 nM; read-out: Percent Control
[11] = biological target: MYLK (Homo sapiens (Human), UniProt Q15746); assay: KINOMEscan scanMAX; assay type: binding; details: 2000 nM; read-out: Percent Control
[12] = biological target: LZK (MAP3K13) (Homo sapiens (Human), UniProt O43283); assay: KINOMEscan scanMAX; assay type: binding; details: 2000 nM; read-out: Percent Control
Chain of LZK (MAP3K13) (O43283 whole entry): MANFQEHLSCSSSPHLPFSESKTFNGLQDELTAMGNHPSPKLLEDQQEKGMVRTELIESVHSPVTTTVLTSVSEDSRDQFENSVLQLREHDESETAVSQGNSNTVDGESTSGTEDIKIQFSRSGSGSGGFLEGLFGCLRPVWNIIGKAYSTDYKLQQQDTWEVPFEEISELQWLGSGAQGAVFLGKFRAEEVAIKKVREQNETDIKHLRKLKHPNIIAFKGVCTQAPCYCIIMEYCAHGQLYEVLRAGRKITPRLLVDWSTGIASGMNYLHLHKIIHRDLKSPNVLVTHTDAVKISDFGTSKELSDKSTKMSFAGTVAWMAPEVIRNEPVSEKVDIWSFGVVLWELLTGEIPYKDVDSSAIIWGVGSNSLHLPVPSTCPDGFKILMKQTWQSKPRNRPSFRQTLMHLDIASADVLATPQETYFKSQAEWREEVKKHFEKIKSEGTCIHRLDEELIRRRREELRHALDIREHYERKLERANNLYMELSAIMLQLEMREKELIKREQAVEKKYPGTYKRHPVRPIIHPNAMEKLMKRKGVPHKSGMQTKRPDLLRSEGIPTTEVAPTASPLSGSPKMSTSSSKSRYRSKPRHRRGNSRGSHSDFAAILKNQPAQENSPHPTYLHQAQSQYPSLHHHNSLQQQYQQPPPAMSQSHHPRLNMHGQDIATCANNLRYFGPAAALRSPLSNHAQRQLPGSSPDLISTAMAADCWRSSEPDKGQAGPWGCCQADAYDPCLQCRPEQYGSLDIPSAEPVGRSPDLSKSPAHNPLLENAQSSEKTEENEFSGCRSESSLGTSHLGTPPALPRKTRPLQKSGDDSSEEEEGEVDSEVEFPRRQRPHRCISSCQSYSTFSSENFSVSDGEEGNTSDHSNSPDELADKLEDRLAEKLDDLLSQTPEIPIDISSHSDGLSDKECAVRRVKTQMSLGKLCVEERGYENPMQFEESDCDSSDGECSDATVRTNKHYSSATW

[13] = biological target: IKK-beta (IKBKB) (Homo sapiens (Human), UniProt O14920); assay: KINOMEscan scanMAX; assay type: binding; details: 2000 nM; read-out: Percent Control
[14] = biological target: MUSK (Homo sapiens (Human), UniProt O15146); assay: KINOMEscan scanMAX; assay type: binding; details: 2000 nM; read-out: Percent Control
[15] = biological target: MAK (Homo sapiens (Human), UniProt P20794); assay: KINOMEscan scanMAX; assay type: binding; details: 2000 nM; read-out: Percent Control
Chain of MAK (P20794 whole entry): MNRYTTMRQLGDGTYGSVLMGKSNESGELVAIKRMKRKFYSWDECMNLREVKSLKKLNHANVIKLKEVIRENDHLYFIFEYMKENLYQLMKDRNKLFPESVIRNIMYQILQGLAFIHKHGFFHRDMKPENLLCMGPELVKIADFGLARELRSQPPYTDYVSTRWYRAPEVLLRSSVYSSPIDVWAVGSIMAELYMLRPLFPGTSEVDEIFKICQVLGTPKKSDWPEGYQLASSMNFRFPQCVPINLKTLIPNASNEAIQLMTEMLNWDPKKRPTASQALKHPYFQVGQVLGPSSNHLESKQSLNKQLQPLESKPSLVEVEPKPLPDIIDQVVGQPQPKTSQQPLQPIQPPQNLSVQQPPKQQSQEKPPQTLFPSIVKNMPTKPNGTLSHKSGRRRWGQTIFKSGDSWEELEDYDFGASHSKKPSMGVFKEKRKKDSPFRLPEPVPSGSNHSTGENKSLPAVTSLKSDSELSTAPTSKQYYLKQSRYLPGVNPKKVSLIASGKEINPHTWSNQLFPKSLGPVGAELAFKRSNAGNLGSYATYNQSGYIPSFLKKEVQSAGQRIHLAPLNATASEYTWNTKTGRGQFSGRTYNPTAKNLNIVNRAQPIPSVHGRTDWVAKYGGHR

[16] = biological target: RPS6KA5(Kin.Dom.1-N-terminal) (Homo sapiens (Human), UniProt O75582); assay: KINOMEscan scanMAX; assay type: binding; details: 2000 nM; read-out: Percent Control
[17] = biological target: ROCK2 (Homo sapiens (Human), UniProt O75116); assay: KINOMEscan scanMAX; assay type: binding; details: 2000 nM; read-out: Percent Control
[18] = biological target: PCTK1 (CDK16) (Homo sapiens (Human), UniProt Q00536); assay: KINOMEscan scanMAX; assay type: binding; details: 2000 nM; read-out: Percent Control
[19] = biological target: EPHB3 (Homo sapiens (Human), UniProt P54753); assay: KINOMEscan scanMAX; assay type: binding; details: 2000 nM; read-out: Percent Control
Chain of EPHB3 (P54753 34-998): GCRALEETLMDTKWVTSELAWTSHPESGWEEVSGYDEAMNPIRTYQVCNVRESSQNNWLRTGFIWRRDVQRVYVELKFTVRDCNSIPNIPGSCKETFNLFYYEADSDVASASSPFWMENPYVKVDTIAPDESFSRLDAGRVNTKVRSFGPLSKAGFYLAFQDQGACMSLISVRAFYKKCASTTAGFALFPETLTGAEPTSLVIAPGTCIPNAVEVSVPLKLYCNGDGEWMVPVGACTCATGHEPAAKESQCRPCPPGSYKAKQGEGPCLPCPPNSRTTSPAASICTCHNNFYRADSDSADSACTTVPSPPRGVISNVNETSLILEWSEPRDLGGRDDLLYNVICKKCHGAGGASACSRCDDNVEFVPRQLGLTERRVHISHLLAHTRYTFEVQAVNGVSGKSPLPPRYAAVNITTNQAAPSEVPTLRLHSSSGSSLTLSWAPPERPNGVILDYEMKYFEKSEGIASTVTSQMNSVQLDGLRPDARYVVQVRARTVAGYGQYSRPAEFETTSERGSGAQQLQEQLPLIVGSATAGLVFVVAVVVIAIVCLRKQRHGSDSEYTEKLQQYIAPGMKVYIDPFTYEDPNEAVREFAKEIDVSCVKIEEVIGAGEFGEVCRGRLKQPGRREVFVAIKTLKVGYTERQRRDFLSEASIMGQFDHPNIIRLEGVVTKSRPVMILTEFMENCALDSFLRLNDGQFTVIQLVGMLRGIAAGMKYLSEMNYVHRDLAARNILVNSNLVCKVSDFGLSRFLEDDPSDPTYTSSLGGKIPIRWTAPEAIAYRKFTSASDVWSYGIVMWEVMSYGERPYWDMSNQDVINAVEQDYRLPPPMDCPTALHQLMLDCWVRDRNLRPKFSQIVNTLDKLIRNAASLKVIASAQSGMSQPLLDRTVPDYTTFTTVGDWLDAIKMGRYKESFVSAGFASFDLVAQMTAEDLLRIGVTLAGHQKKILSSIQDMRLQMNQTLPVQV

[20] = biological target: PIK3CA(H1047Y) (Homo sapiens (Human), UniProt P42336, H1047Y); assay: KINOMEscan scanMAX; assay type: binding; details: 2000 nM; read-out: Percent Control
[21] = biological target: EPHA5 (Homo sapiens (Human), UniProt P54756); assay: KINOMEscan scanMAX; assay type: binding; details: 2000 nM; read-out: Percent Control
[22] = biological target: NEK10 (Homo sapiens (Human), UniProt Q6ZWH5); assay: KINOMEscan scanMAX; assay type: binding; details: 2000 nM; read-out: Percent Control
[23] = biological target: PIP5K1A (Homo sapiens (Human), UniProt Q99755); assay: KINOMEscan scanMAX; assay type: binding; details: 2000 nM; read-out: Percent Control
[24] = biological target: NIM1 (MGC42105) (Homo sapiens (Human), UniProt Q8IY84); assay: KINOMEscan scanMAX; assay type: binding; details: 2000 nM; read-out: Percent Control
[25] = biological target: SBK1 (Homo sapiens (Human), UniProt Q52WX2); assay: KINOMEscan scanMAX; assay type: binding; details: 2000 nM; read-out: Percent Control
Chain of SBK1 (Q52WX2 whole entry): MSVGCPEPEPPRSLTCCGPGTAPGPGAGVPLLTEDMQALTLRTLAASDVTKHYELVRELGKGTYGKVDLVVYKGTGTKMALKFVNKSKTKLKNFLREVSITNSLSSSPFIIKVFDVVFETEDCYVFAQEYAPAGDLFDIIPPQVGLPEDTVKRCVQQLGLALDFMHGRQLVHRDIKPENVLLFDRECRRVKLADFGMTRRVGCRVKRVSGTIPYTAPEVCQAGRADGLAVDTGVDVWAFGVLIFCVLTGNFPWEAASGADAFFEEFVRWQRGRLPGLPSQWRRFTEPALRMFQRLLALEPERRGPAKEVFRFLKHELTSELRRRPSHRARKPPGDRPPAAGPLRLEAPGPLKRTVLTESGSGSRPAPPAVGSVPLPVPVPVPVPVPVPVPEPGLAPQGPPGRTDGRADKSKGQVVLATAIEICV

[26] = biological target: ERK5 (MAPK7) (Homo sapiens (Human), UniProt Q13164); assay: KINOMEscan scanMAX; assay type: binding; details: 2000 nM; read-out: Percent Control
Chain of ERK5 (MAPK7) (Q13164 whole entry): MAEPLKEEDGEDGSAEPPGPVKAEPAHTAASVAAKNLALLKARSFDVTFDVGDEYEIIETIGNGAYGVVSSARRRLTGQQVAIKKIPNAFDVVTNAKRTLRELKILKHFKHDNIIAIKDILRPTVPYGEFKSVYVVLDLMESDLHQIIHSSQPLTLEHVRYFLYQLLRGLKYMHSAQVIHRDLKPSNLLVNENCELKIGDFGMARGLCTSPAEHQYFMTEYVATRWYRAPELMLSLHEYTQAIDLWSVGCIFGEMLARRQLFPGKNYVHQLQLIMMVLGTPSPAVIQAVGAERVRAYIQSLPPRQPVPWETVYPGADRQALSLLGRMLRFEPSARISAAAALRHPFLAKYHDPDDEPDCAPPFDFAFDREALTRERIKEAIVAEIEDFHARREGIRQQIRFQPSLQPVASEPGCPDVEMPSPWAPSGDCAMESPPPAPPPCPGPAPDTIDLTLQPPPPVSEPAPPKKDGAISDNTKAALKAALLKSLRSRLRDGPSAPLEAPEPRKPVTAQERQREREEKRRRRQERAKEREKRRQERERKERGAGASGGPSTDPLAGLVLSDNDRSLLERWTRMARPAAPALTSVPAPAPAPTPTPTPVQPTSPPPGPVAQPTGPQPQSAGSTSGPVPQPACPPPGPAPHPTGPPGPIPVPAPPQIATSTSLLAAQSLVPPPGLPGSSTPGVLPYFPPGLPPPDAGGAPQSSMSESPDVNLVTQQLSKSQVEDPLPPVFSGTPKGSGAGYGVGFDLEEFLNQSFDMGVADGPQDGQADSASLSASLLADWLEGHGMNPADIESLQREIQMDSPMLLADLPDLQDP

[27] = biological target: RIPK2 (Homo sapiens (Human), UniProt O43353); assay: KINOMEscan scanMAX; assay type: binding; details: 2000 nM; read-out: Percent Control
Chain of RIPK2 (O43353 whole entry): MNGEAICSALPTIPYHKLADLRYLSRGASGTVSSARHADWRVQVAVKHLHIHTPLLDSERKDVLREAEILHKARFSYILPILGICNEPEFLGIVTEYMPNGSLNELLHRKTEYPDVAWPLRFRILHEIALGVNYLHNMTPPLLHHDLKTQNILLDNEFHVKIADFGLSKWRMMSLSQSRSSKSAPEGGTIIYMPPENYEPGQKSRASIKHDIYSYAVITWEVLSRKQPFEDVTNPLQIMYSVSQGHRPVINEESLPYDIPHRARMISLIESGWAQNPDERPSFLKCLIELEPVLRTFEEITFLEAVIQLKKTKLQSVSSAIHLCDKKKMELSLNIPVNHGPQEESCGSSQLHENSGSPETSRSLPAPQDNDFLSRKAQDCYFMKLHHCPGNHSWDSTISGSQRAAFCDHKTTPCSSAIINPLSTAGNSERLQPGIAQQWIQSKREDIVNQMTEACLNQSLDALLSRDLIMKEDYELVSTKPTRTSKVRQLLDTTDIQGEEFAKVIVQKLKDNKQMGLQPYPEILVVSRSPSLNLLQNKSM

[28] = biological target: LRRK2(G2019S) (Homo sapiens (Human), UniProt Q5S007, G2019S); assay: KINOMEscan scanMAX; assay type: binding; details: 2000 nM; read-out: Percent Control
[29] = biological target: RPS6KA5(Kin.Dom.2-C-terminal) (Homo sapiens (Human), UniProt O75582); assay: KINOMEscan scanMAX; assay type: binding; details: 2000 nM; read-out: Percent Control
[30] = tested on: NFκB-dependent promoter in CDK8/19 deficient (double-knockout) reporter cells; assay: NFκB-dependent luciferase reporter assay, CDK8/19 double-knockout vs wild-type 293 cells; details: double-knockout vs parental reporter cells
Excerpt: The second cell-based assay measures the effects of CDK8/19 on the expression of firefly luciferase reporter from a NFκB-dependent promoter in 293 cells.

[31] = biological target: CAMK2B (Homo sapiens (Human), UniProt Q13554); assay: KINOMEscan scanMAX; assay type: binding; details: 2000 nM; read-out: Percent Control
[32] = biological target: PIK3C2G (Homo sapiens (Human), UniProt O75747); assay: KINOMEscan scanMAX; assay type: binding; details: 2000 nM; read-out: Percent Control
[33] = biological target: ERK4 (MAPK4) (Homo sapiens (Human), UniProt P31152); assay: KINOMEscan scanMAX; assay type: binding; details: 2000 nM; read-out: Percent Control
[34] = biological target: CDK4-cyclinD3 (Homo sapiens (Human), UniProt P11802); assay: KINOMEscan scanMAX; assay type: binding; details: 2000 nM; read-out: Percent Control
[35] = biological target: EPHB6 (Homo sapiens (Human), UniProt O15197); assay: KINOMEscan scanMAX; assay type: binding; details: 2000 nM; read-out: Percent Control
[36] = biological target: DRAK2 (STK17B) (Homo sapiens (Human), UniProt O94768); assay: KINOMEscan scanMAX; assay type: binding; details: 2000 nM; read-out: Percent Control
[37] = biological target: FLT3-autoinhibited (Homo sapiens (Human), UniProt P36888); assay: KINOMEscan scanMAX; assay type: binding; details: 2000 nM; read-out: Percent Control
[38] = biological target: TAOK1 (Homo sapiens (Human), UniProt Q7L7X3); assay: KINOMEscan scanMAX; assay type: binding; details: 2000 nM; read-out: Percent Control

CN1CCN(C(=O)c2ccc3cc(CCNc4ccnc5ccc(C#N)cc45)ccc3c2)CC1 [compound 6148, 4-((2-(6-(4-methylpiperazine-1-carbonyl)naphthalen-2-yl)ethyl)amino)quinoline-6-carbonitrile]
remaining binding at 2 µM [1]: 83%
remaining binding at 2 µM [2]: 93%
remaining binding at 2 µM [3]: 100%
remaining binding at 2 µM [4]: 91%
remaining binding at 2 µM [5]: 93%
remaining binding at 2 µM [6]: 82%
remaining binding at 2 µM [7]: 56%
remaining binding at 2 µM [8]: 97%
remaining binding at 2 µM [9]: 88%
remaining binding at 2 µM [10]: 100%
remaining binding at 2 µM [11]: 83%
remaining binding at 2 µM [12]: 46%
remaining binding at 2 µM [13]: 76%
remaining binding at 2 µM [14]: 90%
remaining binding at 2 µM [15]: 100%
remaining binding at 2 µM [16]: 86%
remaining binding at 2 µM [17]: 71%
remaining binding at 2 µM [18]: 68%
remaining binding at 2 µM [19]: 81%
remaining binding at 2 µM [20]: 91%
remaining binding at 2 µM [21]: 97%
remaining binding at 2 µM [22]: 41%
remaining binding at 2 µM [23]: 84%
remaining binding at 2 µM [24]: 67%
remaining binding at 2 µM [25]: 57%
remaining binding at 2 µM [26]: 94%
remaining binding at 2 µM [27]: 100%
remaining binding at 2 µM [28]: 56%
remaining binding at 2 µM [29]: 100%
IC50 in CDK8/19-deficient cells relative to wild-type cells [30]: > 50 times
remaining binding at 2 µM [31]: 97%
remaining binding at 2 µM [32]: 57%
remaining binding at 2 µM [33]: 87%
remaining binding at 2 µM [34]: 80%
remaining binding at 2 µM [35]: 86%
remaining binding at 2 µM [36]: 87%
remaining binding at 2 µM [37]: 88%
remaining binding at 2 µM [38]: 76%

— patent publication US12281080B2, “Quinoline-based compounds and methods of inhibiting CDK8/19” (University of South Carolina, priority 2018, dated 2025)
